Source: patent publication US7094801B2, “Chalcone derivatives and their use to treat diseases” (Atherogenics, Inc., priority 2001, dated 2006)

Experiments:
VCAM-1 = test: In Vitro VCAM-1 Assay (TNF-α stimulated HAEC or HPAEC, cell ELISA); format: cell-based, human; settings: Homo sapiens, 16 h, TNF-α (1 ng/ml) stimulated HAEC or HPAEC, approximately 16 hours
Description: Cell Culture and compound dosing: Cultured primary human aortic (HAEC) or pulmonary (HPAEC) endothelial cells were obtained from Clonetics, Inc., and were used below passage 9. Cells were seeded in 96 well plates such that they would reach 90–95% confluency by the following day. On the following day the cells were stimulated with TNF-α (1 ng/ml) in the presence or absence of compounds dissolved in DMSO such that the final concentration of DMSO is 0.25% or less. To establish a dose curve for each compound, four concentrations in 2- to 5-fold increments were used. Cells were exposed to TNF-α and compounds for approximately 16 hours. The next day the cells were examined under microscope to score for visual signs of toxicity or cell stress.
Following 16 hr exposure to TNF-α and compound the media was discarded and the cells were washed once with Hanks Balanced Salt Solution (HBSS)/Phosphate buffered saline (PBS) (1:1). Primary antibodies against VCAM-1 (0.25 μg/ml in HBSS/PBS+5% FBS) were added and incubated for 30–60 minutes at 37° C. Cells were washed with HBSS/PBS three times, and secondary antibody Horse Radish Peroxidase (HRP)-conjugated goat anti-mouse IgG (1:500 in HBSS/PBS+5% FBS) were added and incubated for 30 minutes at 37° C. Cells were washed with HBSS/PBS four time and TMB substrate were added and incubated at room temperature in the dark until there was adequate development of blue color. The length of time of incubation was typically 5–15 minutes. 2N sulfuric acid was added to stop the color development and the data was collected by reading the absorbance on a BioRad ELISA plate reader at OD 450 nm. The results are expressed as IC50 values (the concentration (micromolar) of compound required to inhibit 50% of the maximal response of the control sample stimulated by TNF-α only).

Compound	IC50 (VCAM-1)	melting point
COc1cc(OC)c(-c2c(C)noc2C)cc1/C=C/C(=O)c1ccc(C(=O)O)cc1 [Example 33, 4-{3E-[5-(3,5-Dimethyl-isoxazol-4-yl)-2,4-dimethoxy-phenyl]-acryloyl}-benzoic acid]	< 5 µM	> 260 °C
COc1ccc(/C=C/C(=O)c2ccc(C(=O)O)cc2)c(-c2cccs2)c1 [Example 34, 4-[3E-(4-Methoxy-2-thiophen-2-yl-phenyl)-acryloyl]-benzoic acid]	> 10 µM	209 to 211 °C
COc1cc(OC)c(-c2cccs2)cc1/C=C/C(=O)c1ccccc1C(=O)O [Example 35, 2-[3E-(2,4-Dimethoxy-5-thiophen-2-yl-phenyl)-acryloyl]-benzoic acid]	> 10 µM	196 to 198 °C
COc1cc(-c2cccs2)cc(OC)c1/C=C/C(=O)c1ccc(C(=O)O)cc1 [Example 37, 4-[3E-(2,6-Dimethoxy-4-thiophen-2-yl-phenyl)-acryloyl]-benzoic acid]	> 10 µM	256 to 258 °C
COc1ncc(-c2cc(/C=C/C(=O)c3ccc(C(=O)O)cc3)c(OC)cc2OC)c(OC)n1 [Example 38, 4-{3E-[5-(2,4-Dimethoxy-pyrimidin-5-yl)-2,4-dimethoxy-phenyl]-acryloyl}-benzoic acid]	< 10 µM	203 to 205 °C
COc1cc(OC)c(/C=C/C(=O)c2ccc(C(=O)O)cc2)c(-c2cccs2)c1 [Example 39, 4-[3E-(2,4-Dimethoxy-6-thiophen-2-yl-phenyl)-acryloyl]-benzoic acid]	> 10 µM	231 °C (dec.)
COc1cc(OC)c(-c2ccc(C)s2)cc1/C=C/C(=O)c1ccc(C(=O)O)cc1 [Example 40, 4-{3E-[2,4-Dimethoxy-5-(5-methyl-thiophen-2-yl)-phenyl]-acryloyl}-benzoic acid]	< 1 µM	213 to 215 °C
COc1ccc(/C=C/C(=O)c2ccc(C(=O)O)cc2)cc1-c1cccs1 [Example 41, 4-[3E-(4-Methoxy-3-thiophen-2-yl-phenyl)-acryloyl]-benzoic acid]	< 5 µM	219 to 220 °C
O=C(O)c1ccc(C(=O)/C=C/c2cccc(-c3cccs3)c2)cc1 [Example 42, 4-[3E-(3-Thiophen-2-yl-phenyl)-acryloyl]-benzoic acid]	< 5 µM	238 °C (dec.)
COc1cc(OC)c(-c2cccs2)cc1/C=C/C(=O)c1cccc(C(=O)O)c1 [Example 43, 3-[3E-(2,4-Dimethoxy-5-thiophen-2-yl-phenyl)-acryloyl]-benzoic acid]	< 5 µM	179 to 182 °C
COc1ccc(/C=C/C(=O)c2ccc(C(=O)O)cc2)c(OC)c1-c1cc2ccccc2s1 [Example 44, 4-[3E-(3-Benzo[b]thiophen-2-yl-2,4-dimethoxy-phenyl)-acryloyl]-benzoic acid]	< 1 µM	237 °C (dec.)
COc1ccc(-c2cccs2)cc1/C=C/C(=O)c1ccc(C(=O)O)cc1 [Example 45, 4-[3E-(2-Methoxy-5-thiophen-2-yl-phenyl)-acryloyl]-benzoic acid]	< 5 µM	195 to 196 °C
COc1cc(OC)c(-c2cnccn2)cc1/C=C/C(=O)c1ccc(C(=O)O)cc1 [Example 46, 4-[3E-(2,4-Dimethoxy-5-pyrazin-2-yl-phenyl)-acryloyl]-benzoic acid]	< 10 µM	238 °C (dec.)
COc1cc(OC(C)(C)C(=O)O)c(-c2cccs2)cc1/C=C/C(=O)c1ccc(C(=O)O)cc1 [Example 47, 4-{3E-[4-(1-Carboxy-1-methyl-ethoxy)-2-methoxy-5-thiophen-2-yl-phenyl]-acryloyl}-benzoic acid]	> 10 µM	135 to 137 °C
COc1ccc(/C=C/C(=O)c2ccccc2C(=O)O)cc1-c1cccs1 [Example 48, 2-[3E-(4-Methoxy-3-thiophen-2-yl-phenyl)-acryloyl]-benzoic acid]	< 10 µM	79 to 81 °C
COCCOCCOc1cc(OC)c(/C=C/C(=O)c2ccc(C(=O)O)cc2)cc1-c1cccs1 [Example 49, 4-(3E-{2-Methoxy-4-[2-(2-methoxy-ethoxy)-ethoxy]-5-thiophen-2-yl-phenyl}-acryloyl)-benzoic acid]	< 10 µM	174 to 175 °C

Compound	IC50 (VCAM-1)	melting point
COc1cc(OCC(CO)CO)c(-c2cccs2)cc1/C=C/C(=O)c1ccc(C(=O)O)cc1 [Example 50, 4-{3E-[4-(3-Hydroxy-2-hydroxymethyl-propoxy)-2-methoxy-5-thiophen-2-yl-phenyl]-acryloyl}-benzoic acid]	> 10 µM	199 to 201 °C
CCOc1cc(OC)c(/C=C/C(=O)c2ccc(C(=O)O)cc2)cc1-c1cccs1 [Example 53, 4-[3E-(4-Ethoxy-2-methoxy-5-thiophen-2-yl-phenyl)-acryloyl]-benzoic acid]	< 5 µM	210 to 212 °C
COc1cc(O)c(-c2cccs2)cc1/C=C/C(=O)c1ccc(C(=O)O)cc1 [Example 54, 4-[3E-(4-Hydroxy-2-methoxy-5-thiophen-2-yl-phenyl)-acryloyl]-benzoic acid]	< 10 µM	243 °C (dec.)
COc1cc(OC)c(-c2nccs2)cc1/C=C/C(=O)c1ccc(C(=O)O)cc1 [Example 55, 4-[3E-(2,4-Dimethoxy-5-thiazol-2-yl-phenyl)-acryloyl]-benzoic acid]	< 5 µM	> 260 °C
COc1cc(OC)c(-c2cccn2C(=O)OC(C)(C)C)cc1/C=C/C(=O)c1ccc(C(=O)O)cc1 [Example 57, 2-{5-[3-(4-Carboxy-phenyl)-3-oxo-E-propenyl]-2,4-dimethoxy-phenyl}-pyrrole-1-carboxylic acid tert-butyl ester]	< 5 µM	205 to 207 °C
COc1cc(O)c(/C=C/C(=O)c2ccc(C(=O)O)cc2)cc1-c1cccs1 [Example 58, 4-[3E-(2-Hydroxy-4-methoxy-5-thiophen-2-yl-phenyl)-acryloyl]-benzoic acid]	> 10 µM	125 °C (dec.)
COc1cc(OC)c(-c2cc3ccccc3[nH]2)cc1/C=C/C(=O)c1ccc(C(=O)O)cc1 [Example 61, 4-{3E-[5-(1H-Indol-2-yl)-2,4-dimethoxy-phenyl]-acryloyl}-benzoic acid]	< 1 µM	210 to 212 °C
COc1cc(OCc2c(C)noc2C)c(/C=C/C(=O)c2ccc(C(=O)O)cc2)cc1-c1cccs1 [Example 62, 4-{3E-[2-(3,5-Dimethyl-isoxazol-4-ylmethoxy)-4-methoxy-5-thiolphen-2-yl-phenyl]-acryloyl}-benzoic acid]	< 5 µM	213 to 215 °C
COc1cc(OCC(CO)CO)c(/C=C/C(=O)c2ccc(C(=O)O)cc2)cc1-c1cccs1 [Example 64, 4-{3E-[2-(3-Hydroxy-2-hydroxymethyl-propoxy)-4-methoxy-5-thiophen-2-yl-phenyl]-acryloyl}-benzoic acid]	> 10 µM	219 to 220 °C
Cl.O=C(O)c1ccc(C(=O)/C=C/c2cc(-c3cccs3)ccc2OCCCN2CCOCC2)cc1 [Example 65, 4-{3E-[2-(3-Morpholin-4yl-propoxy)-5-thiophen-2-yl-phenyl]-acryloyl}-benzoic acid, hydrochloride]	< 1 µM	234 to 236 °C
COc1cc(OCCCN2CCOCC2)c(/C=C/C(=O)c2ccc(C(=O)O)cc2)cc1-c1cccs1.Cl [Example 66, 4-{3E-[4-Methoxy-2-(3-morpholin-4-yl-propoxy)-5-thiophen-2-yl-phenyl]-acryloyl}-benzoic acid, hydrochloride]	< 1 µM	188 to 191 °C (dec.)
COc1cc(OCC(=O)N(C)C)c(/C=C/C(=O)c2ccc(C(=O)O)cc2)cc1-c1cccs1 [Example 67, 4-[3E-(2-Dimethylcarbamoylmethoxy-4-methoxy-5-thiophen-2-yl-phenyl)-acryloyl]-benzoic acid]	< 10 µM	228 to 229 °C
COCCOCCOCCOc1cc(OC)c(-c2cccs2)cc1/C=C/C(=O)c1ccc(C(=O)O)cc1 [Example 68, 4-[3E-(4-Methoxy-2-{2-[2-(2-methoxy-ethoxy)-ethoxy]-ethoxy}-5-thiophen-2-yl-phenyl)-acryloyl]-benzoic acid]	< 5 µM	137 to 138 °C
COc1cc(OC)c(-c2csc(C)n2)cc1/C=C/C(=O)c1ccc(C(=O)O)cc1 [Example 69, 4-{3E-[2,4-Dimethoxy-5-(2-methyl-thiazol-4-yl)-phenyl]-acryloyl}-benzoic acid]	< 5 µM	201 to 202 °C (dec.)
COc1cc(OC)c(-c2nc3ccccc3[nH]2)cc1/C=C/C(=O)c1ccc(C(=O)O)cc1.Cl [Example 70, 4-{3E-[5-(1H-Benzoimidazol-2-yl)-2,4-dimethoxy-phenyl]-acryloyl}-benzoic acid]	< 5 µM	> 240 °C (dec.)
